The record followed here is patent US10954271B2, “Anti-microbial peptides” (priority 2014, dated 2021).

Converted amounts (≈) assume the structure as drawn. Positions of bridges follow the written chain, without caps; N, C: chain ends. Non-standard residues stand in square brackets, D forms with d. Residues, ends and D or L forms follow the SMILES beside them. d2Nal = N[C@H](Cc1ccc2ccccc2c1)C(=O)O; Nle = CCCC[C@H](N)C(=O)O

In one data set the test system is M. smegmatis. In words: M. smegmatis adhesion / anti-biofilm assay, counting crystal violet-positive cells. Type of data set: cell-based. The source says:
A second series of cationic-aromatic AMPs was designed, and linked (via the N-terminus) to linear anti-biofilm peptides. This created a hybrid anti-biofilm/AMP (AB01), with a Gram-positive specific C-terminal di-peptide (dVal-dPro). A model Gram positive organism that rapidly forms biofilms (M. smegmatis; Ojha, A. and G. F. Hatfull, The role of iron in Mycobacterium smegmatis biofilm formation: the exochelin siderophore is essential in limiting iron conditions for biofilm formation but not for planktonic growth. Mol Microbiol, 2007. 66(2): p. 468-83) was used to assess the inhibition of adhesion/anti-biofilm activity of AB01 & two control AMPs, using a 2 day old biofilm.
The effect of three AMPs on M. smegmatis adhesion was measured on day 0 (data not shown) & after 2 days of biofilm growth, counting crystal violet-positive cells (FIG. 5; see O'Toole, G. A., Microtiter dish biofilm formation assay. J Vis Exp, 2011(47)). Control bacterial adhesion was designated as 100%, and the effect of an added AMP on the cell count was quantified as a percent of the control. The AMPs included Model 01, an AMP of the (RW)n series, (RW)4: [17]; AM11, a cyclized analog of the (RW)n series c(RW)3; and AB01, a hybrid of a cyclized AMP and a linear anti-biofilm peptide.

In data set [1] the test system is E. coli.
The test system of a further data set is B. subtilis. In words: Anti-microbial activity, concentration needed to inhibit 50% of bacterial division (IC50). Type of data set: cell-based. As to the method:
(§1) Further, a set of the anti-microbial peptides described herein were tested for their anti-microbial activity on both Gram-positive and Gram-negative bacteria. […] Unexpectedly, it was further observed that the C-terminal residues (denoted by bold font) selectively target gram-negative or gram-positive bacteria, as indicated.
(§2) Anti-microbial activity is reported as the concentration needed to inhibit 50% of bacterial division (ICso, a standard used in the AMP field). […] In contrast, Opt 3-5 have a Phe for Pro substitution in the C-terminal di-peptide, which produces relatively specificity for Gram-negative organisms (e.g. E. coli). Melittin is a cationic-hydrophobic AMP that served as anti-microbial positive control. Agglutination, an attribute assisting in the clearance of bacterial cells during infection, was assessed via microscopy, and was present with all five AMPs.

In data set [2] the test system is E. coli. The description is as above. Type of data set: cell-based. Conditions: for relative specificity Gram-positive versus Gram-negative: from IC50 against E. coli and B. subtilis, Table 1. On the procedure: as §1, §2
Data set [3] has as its system Gram-positive and Gram-negative bacteria. Description: Membrane disruption and cell agglutination assessed via microscopy. Type of data set: cell-based. On the procedure:
as §1, §2
(§3) (1) Microscopy. Bacteria can be treated with dilutions of AMPs were directly analyzed via microscopy for membrane disruption phenotypes, including cell agglutination, cell lysis, and cell elongation/septum disruption. Cells can be also monitored for septum inhibition and elongation through use of the membrane dye FM5-95 and DAPI. Additionally the cells can be imaged and stained with the Life Technologies LIVE/DEAD® BacLight™ Bacterial Viability Kit For killing kinetics of the anti-microbial peptides.
(2) Agglutination and Protein Aggregation. Using the antimicrobial 96 well assay described above, imaging of the 96 well plate and can provide a method for the determination of the MAC (minimum agglutination concentration) for the bacteria, as described. Torrent et al., PLoS Pathogens 8(11): e1003005 (2012).

Data set [4] has the same test system. In words: Non-membrane activity (mode of action: septum inhibition, protein aggregation, cell division). Type of data set: cell-based. On the procedure:
as §1
Core sequences were cyclized to enhance druggability and anti-microbial activity. Multiple cationic residues increased binding to anionic membrane and intracellular structures. […] The C-terminal di-peptides in these AMPs were used for their ability to enhance oral activity in peptides. It was discovered that they also directed relative anti-microbial activity towards either Gram-positive or negative organisms (Table 1 and FIG. 5). These AMPs appear to have multiple mechanisms of action (Table 1), potentially mediated by specific binding to the bacterial membrane, and their intracellular accumulation (data not shown). In essence, these AMPs are a form of combination therapy.
as §3

For data set [5] the following is noted: orally administered, canines (beagles). From the text: We further conducted a preliminary study in a large animal canine model to assess cardiovascular and hematologic safety and clearance of the peptide TCAM207 (SEQ NO: 209) from plasma over a multiple day dosing. Male and female purpose bred beagles were randomized to treatment and instrumented with Holter 9 lead electrocardiograph (ECG) jackets and non-invasive oscillographic paw blood pressure monitoring (emkaPAC 4G telemetry). ECG and BP signals were sampled at 500 Hz using GLP compliant software (IOX, EMKA). ECG signals were saved continuously and blood pressure determined hourly. Blood samples were taken before and after 14 days of SC or oral drug administration for complete chemistry panel and CBC analysis. Samples were taken 1, 2, 4, 8, 12, and 24 hours after drug administration on days 1 and 5 for assay of plasma IIP to assess PK profile. After a 1-2 week washout, dogs were randomized to the other arm of the study.

The conditions of data set [6]: normal beagles (n=4), 5 days of 5× therapeutic dose.

For `CC[C@H](C)[C@H](NC(=O)[C@H](CCCNC(=N)N)NC(=O)[C@H](Cc1ccccc1)NC(C)=O)C(=O)N[C@@H](CCCNC(=N)N)C(=O)N[C@H](C(=O)N[C@@H](CCCNC(=N)N)C(=O)N[C@H](C(=O)N[C@H]1CC(=O)NCCCC[C@@H](C(=O)N[C@@H](C(=O)N2CCC[C@@H]2C(N)=O)C(C)C)NC(=O)[C@H](CCCNC(=N)N)NC(=O)[C@H](Cc2c[nH]c3ccccc23)NC(=O)[C@H](Cc2ccccc2)NC(=O)[C@@H](Cc2ccc3ccccc3c2)NC(=O)[C@H](CCCNC(=N)N)NC(=O)[C@H](CCCNC(=N)N)NC1=O)C(C)C)C(C)C` [AB01, Ac-FRIRVRV-c[Asp-RR-dNal(21-FWR-Lys]-dVal-dPro-CONH2] (Ac-FRIRVRVDRR[d2Nal]FWRK[dV][dP]-NH2; lactam 8-15), in the data set on M. smegmatis (2 day old biofilm), the “concentration that prevented adhesion in a 2 day old biofilm” value lay within 3 to 5 µM and the “potency in inhibition of adhesion/anti-biofilm activity relative to Model 01” value is on record as ~100 fold. For the same compound, in the data set on M. smegmatis, the “concentration that prevented adhesion on day 0” value stood at 1 µM. The “MIC for E. coli” value in the data set on E. coli [1] was 25 µM.

Consider `CC[C@H](C)[C@H](NC(=O)CN)C(=O)NCC(=O)N[C@@H](C)C(=O)N[C@H](C(=O)N[C@@H](CC(C)C)C(=O)N[C@@H](CCCCN)C(=O)N[C@H](C(=O)N[C@@H](CC(C)C)C(=O)N[C@H](C(=O)N[C@H](C(=O)NCC(=O)N[C@@H](CC(C)C)C(=O)N1CCC[C@H]1C(=O)N[C@@H](C)C(=O)N[C@@H](CC(C)C)C(=O)N[C@H](C(=O)N[C@@H](CO)C(=O)N[C@@H](Cc1c[nH]c2ccccc12)C(=O)N[C@H](C(=O)N[C@@H](CCCCN)C(=O)N[C@@H](CCCNC(=N)N)C(=O)N[C@@H](CCCCN)C(=O)N[C@@H](CCCNC(=N)N)C(=O)N[C@@H](CCC(N)=O)C(=O)N[C@@H](CCC(N)=O)C(N)=O)[C@@H](C)CC)[C@@H](C)CC)[C@@H](C)O)[C@@H](C)O)C(C)C)C(C)C` [Melittin, reference compound], for which, in the data set on B. subtilis, the “IC50 B. subtilis” value was determined as 20.8 µg/mL (≈ 7.31 µM). Moreover, in the data set with E. coli [2] (concentration needed to inhibit 50% of bacterial division), the “IC50, E. coli; μg/mL” value was 0.7 µg/mL (≈ 0.246 µM). Further, the “Membrane Disruption?” value in data set [3] is recorded as “Yes”. The “Non-Membrane Activity?” value in data set [4] is listed as “None observed”.

As to `CCCC[C@H](NC(C)=O)C(=O)N[C@H]1CC(=O)NCCCC[C@@H](C(=O)N[C@@H](C(=O)N2CCC[C@@H]2C(N)=O)C(C)C)NC(=O)[C@@H](Cc2ccc3ccccc3c2)NC(=O)[C@H](CCCNC(=N)N)NC(=O)[C@@H](Cc2ccc3ccccc3c2)NC(=O)[C@@H]2CCCN2C(=O)[C@H](CCCNC(=N)N)NC1=O` [Opt 1] (Ac-[Nle]DRP[d2Nal]R[d2Nal]K[dV][dP]-NH2; lactam 2-8), the “relative specificity Gram-positive versus Gram-negative” value in the data set with E. coli [2] is reported as “relatively specific for B. subtilis”. Further, the “Membrane Disruption?” value in data set [3] was “Yes, and Agglutination”.

In the case of `CCCC[C@H](NC(C)=O)C(=O)N[C@H]1CC(=O)NCCCC[C@@H](C(=O)N[C@@H](C(=O)N2CCC[C@@H]2C(N)=O)C(C)C)NC(=O)[C@H](CCCNC(=N)N)NC(=O)[C@@H](Cc2ccc3ccccc3c2)NC(=O)[C@H](CCCNC(=N)N)NC(=O)[C@@H](Cc2ccc3ccccc3c2)NC(=O)[C@@H]2CCCN2C(=O)[C@H](CCCNC(=N)N)NC1=O` [Opt 2] (Ac-[Nle]DRP[d2Nal]R[d2Nal]RK[dV][dP]-NH2; lactam 2-9), the “relative specificity Gram-positive versus Gram-negative” value in the data set on E. coli [2] was “relatively specific for B. subtilis”. For the same compound, the “Membrane Disruption?” value in data set [3] is “Yes, and Agglutination”.

`CCCC[C@H](NC(C)=O)C(=O)N[C@H]1CC(=O)NCCCC[C@@H](C(=O)N[C@H](Cc2ccccc2)C(=O)N[C@@H](C(N)=O)C(C)C)NC(=O)[C@H](Cc2c[nH]c3ccccc23)NC(=O)[C@H](CCCNC(=N)N)NC(=O)[C@@H](Cc2ccc3ccccc3c2)NC(=O)[C@@H]2CCCN2C(=O)[C@H](CCCNC(=N)N)NC1=O` [Opt 3] (Ac-[Nle]DRP[d2Nal]RWK[dF][dV]-NH2; lactam 2-8): in data set [3], the “Membrane Disruption?” value is “Yes, and Agglutination”. Moreover, the “Non-Membrane Activity?” value in data set [4] was “None observed”.

For the compound `CCCC[C@H](NC(C)=O)C(=O)N[C@H]1CC(=O)NCCCC[C@@H](C(=O)N[C@@H](Cc2ccccc2)C(=O)N[C@H](C(N)=O)C(C)C)NC(=O)[C@H](Cc2c[nH]c3ccccc23)NC(=O)[C@H](CCCNC(=N)N)NC(=O)[C@@H](Cc2ccc3ccccc3c2)NC(=O)[C@@H]2CCCN2C(=O)[C@H](CCCNC(=N)N)NC1=O` [Opt 4] (Ac-[Nle]DRP[d2Nal]RWKFV-NH2; lactam 2-8), in data set [3], the “Membrane Disruption?” value is “Yes, and Agglutination”.

For `CCCC[C@H](NC(C)=O)C(=O)N[C@H]1CC(=O)NCCCC[C@@H](C(=O)N[C@H](C(=O)N[C@@H](Cc2ccccc2)C(N)=O)C(C)C)NC(=O)[C@H](Cc2c[nH]c3ccccc23)NC(=O)[C@H](CCCNC(=N)N)NC(=O)[C@@H](Cc2ccc3ccccc3c2)NC(=O)[C@@H]2CCCN2C(=O)[C@H](CCCNC(=N)N)NC1=O` [Opt 5] (Ac-[Nle]DRP[d2Nal]RWKVF-NH2; lactam 2-8), the “Membrane Disruption?” value in data set [3] is “Yes, and Agglutination”. In data set [4], the “Non-Membrane Activity?” value is given as “Altered cell”.

In the case of (RW)4 [Model-01, reference compound], in the data set on M. smegmatis (2 day old biofilm), the “concentration that prevented adhesion in a 2 day old biofilm” value was ≥ 100 µM. Also, the “concentration that prevented adhesion on day 0” value in the data set on M. smegmatis came out at 10 µM.

As for “Ac-[Nle]DP[d2Nal]RWK[dV][dP]-NH2 (lactam 2-7) [TCAM207]”, the “time the peptide was stable and remained in the plasma” value in data set [5] is “up to 24 hrs”. Further, in data set [6], the RBC casts entry is reported as “no RBC casts were noted”; the “change in red blood cell (RBC) count, hemoglobin (Hg), and hematocrit (Hct)” value was “slight (statistically insignificant) decreases in all parameters”.
